Series [1] is described as follows: In Vitro Liver Microsomes Metabolic Stability Assay, human. It counts as in vitro ADME. The settings on record: human liver microsomes 0.5 mg/mL, 1 μM compound, NADPH, 0 and 30 min; scale-up CLint; read-out: CLint, Human LM. On the procedure:
(§1) In Vitro Liver Microsomes Metabolic Stability Assay of Different Species
(§2) 1. The liver microsomes were stored at −80° C. prior to use.
(§3) 2. The master solution was prepared according to Table 3.
(§4) 3. 40 μL of 10 mM NADPH solution was added to each well. The final concentrations of NADPH was 1 mM. The mixture was pre-warmed at 37° C. for 5 minutes. The negative control samples were prepared by replacing NADPH solutions with 40 μL of ultra-pure H2O. The negative control was used to exclude the misleading factor that resulted from instability of chemical itself. Samples with NADPH were prepared in duplicate. Negative controls were prepared in singlet.
(§5) 4. The reaction was started with the addition of 2 μL of 200 μM control compound or test compound solutions. Verapamil was used as positive control in this study. The final concentration of test compound or control compound was 1 μM.
(§6) 5. Aliquots of 50 μL were taken from the reaction solution at 0 and 30 minutes. The reaction was stopped by the addition of 4 volumes of cold acetonitrile with Internal Standard (100 nM alprazolam, 200 nM imipramine, 200 nM labetalol and 2 μM ketoprofen). Samples were centrifuged at 3, 220 g for 40 minutes. Aliquot of 90 μL of the supernatant was mixed with 90 μL of ultra-pure H2O and then used for LC-MS/MS analysis.
(§7) Peak areas were determined from extracted ion chromatograms. The slope value, k, was determined by linear regression of the natural logarithm of the remaining percentage of the parent drug vs. incubation time curve.
(§8) The in vitro half-life (in vitro t1/2) was determined from the slope value:
(§9) Conversion of the in vitro t1/2 (min) into the in vitro intrinsic clearance (in vitro CLint, in μL/min/mg protein) was done using the following equation (mean of duplicate determinations): […]
(§10) Conversion of the in vitro t1/2 (min) into the scale-up unbound intrinsic clearance (Scale-up CLint, in mL/min/kg) was done using the following equation (mean of duplicate determinations): […]

Series [2] can be described thus: In Vitro Liver Microsomes Metabolic Stability Assay, rat. It counts as in vitro ADME. The settings on record: rat liver microsomes 0.5 mg/mL, 1 μM compound, NADPH, 0 and 30 min; scale-up CLint; read-out: CLint, Rat LM. On the procedure:
as §1, §2, §3, §4, §5, §6, §7, §8, §9, §10

A short description of series [3]: In Vitro Liver Microsomes Metabolic Stability Assay, mouse. It counts as in vitro ADME. As to conditions: mouse liver microsomes 0.5 mg/mL, 1 μM compound, NADPH, 0 and 30 min; scale-up CLint; read-out: CLint, Mouse LM. The method, then:
as §1, §2, §3, §4, §5, §6, §7, §8, §9, §10

The target of the next series is T1, TFEB (Homo sapiens, UniProt P19484).
T1 sequence (P19484 1-476): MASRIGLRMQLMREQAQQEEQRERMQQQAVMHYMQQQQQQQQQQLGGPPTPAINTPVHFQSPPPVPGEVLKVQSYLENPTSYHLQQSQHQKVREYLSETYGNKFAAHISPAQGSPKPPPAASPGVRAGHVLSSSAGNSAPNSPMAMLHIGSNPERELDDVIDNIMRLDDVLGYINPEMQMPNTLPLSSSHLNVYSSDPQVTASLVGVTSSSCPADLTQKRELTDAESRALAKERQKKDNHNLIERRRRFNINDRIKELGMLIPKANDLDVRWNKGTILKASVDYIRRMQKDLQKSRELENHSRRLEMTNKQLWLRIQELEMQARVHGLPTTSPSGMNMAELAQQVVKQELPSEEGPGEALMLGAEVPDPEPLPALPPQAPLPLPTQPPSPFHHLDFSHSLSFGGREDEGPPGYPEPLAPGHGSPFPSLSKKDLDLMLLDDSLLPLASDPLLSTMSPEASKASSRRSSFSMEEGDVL
Nature of the series: Tfeb-Translocation Assay HEK-293T-oEX-Tfeb-GFP Cell Line. It counts as cell-based. The settings on record: HEK-293T-oEX-TFEB-GFP cells; translocation positive cells ratio; read-out: TFEB Translocation EC50. Summed up:
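HEK-293T cells overexpressing Tfeb-GFP were treated for 6 or 18 h at 37 °C with 10-point 3- or 2-fold dilutions from 50 µM (Torin 1 reference from 300 nM), then PFA-fixed and Hoechst-stained. Cells with nuclear/perinuclear EGFP ratio 1.2 among EGFP-positive cells were scored as translocation-positive; DMSO set to ~15% for normalization.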

Some results are limits rather than exact numbers.

Regarding `Cc1nc2ccn(Cc3ccco3)c(=O)c2cc1C(=O)NCC1CCC(Cl)CC1` (centres unmarked) [Comparator 2, reference compound], the CLint scaled at 1 μM in series [1] turned out to be 77 mL/min/kg; in series [2], 318 mL/min/kg; in series [3] it was 939 mL/min/kg.
On to `Cc1ccc(CNC(=O)c2cc3c(=O)n(Cc4ccccc4)ccc3nc2C)o1` [Example 1, 6-benzyl-2-methyl-N-((5-methylfuran-2-yl)methyl)-5-oxo-5,6-dihydro-1,6-naphthyridine-3-carboxamide], for which the EC50 at TFEB was under 100 nM. Further, the CLint scaled at 1 μM amounted to 57 mL/min/kg in series [1], 319 mL/min/kg in series [2] and 760 mL/min/kg in series [3].
For `Cc1cccc(CNC(=O)c2cc3c(=O)n(Cc4ccccc4)ccc3nc2C)c1` [Example 5, 6-benzyl-2-methyl-N-(3-methylbenzyl)-5-oxo-5,6-dihydro-1,6-naphthyridine-3-carboxamide], in that order: 100 to 1000 nM, 171 mL/min/kg, 1040 mL/min/kg and 1800 mL/min/kg.
The corresponding values for `Cc1cccc(CNC(=O)c2cc3c(=O)n(Cc4ccccc4)ccc3nc2C)n1` [Example 6, 6-benzyl-2-methyl-N-((6-methylpyridin-2-yl)methyl)-5-oxo-5,6-dihydro-1,6-naphthyridine-3-carboxamide] are 100 to 1000 nM, 16 mL/min/kg, 217 mL/min/kg and 414 mL/min/kg.
The corresponding values for `Cc1nc2ccn(Cc3ccccc3)c(=O)c2cc1C(=O)NCc1ccccn1` [Example 7, 6-benzyl-2-methyl-5-oxo-N-(pyridin-2-ylmethyl)-5,6-dihydro-1,6-naphthyridine-3-carboxamide] are 100 to 1000 nM, 2 mL/min/kg, 28 mL/min/kg and 91 mL/min/kg.
Regarding `Cc1nc2ccn(Cc3ccccc3)c(=O)c2cc1C(=O)NCc1ccccc1` [Example 17, N,6-dibenzyl-2-methyl-5-oxo-5,6-dihydro-1,6-naphthyridine-3-carboxamide], the EC50 at TFEB lay in the range of 100 to 1000 nM. The CLint scaled at 1 μM in series [1] was found to be 15 mL/min/kg; in series [2], 163 mL/min/kg; in series [3] it was 470 mL/min/kg.
For `Cc1nc(CNC(=O)c2cc3c(=O)n(Cc4ccccc4)ccc3nc2C)co1` [Example 18, 6-benzyl-2-methyl-N-((2-methyloxazol-4-yl)methyl)-5-oxo-5,6-dihydro-1,6-naphthyridine-3-carboxamide], in that order: 100 to 1000 nM, 4 mL/min/kg, 73 mL/min/kg and 140 mL/min/kg.
For `Cc1nc2ccn(Cc3ccc(Cl)cc3)c(=O)c2cc1C(=O)NCc1ccccn1` [Example 31, 6-(4-chlorobenzyl)-2-methyl-5-oxo-N-(pyridin-2-ylmethyl)-5,6-dihydro-1,6-naphthyridine-3-carboxamide], in that order: under 100 nM, 1 mL/min/kg, 55 mL/min/kg and 132 mL/min/kg.
Take `Cc1nc2ccn(Cc3ccccc3)c(=O)c2cc1C(=O)NCc1cc(F)c(F)cn1` [Example 50, 6-benzyl-N-((4,5-difluoropyridin-2-yl)methyl)-2-methyl-5-oxo-5,6-dihydro-1,6-naphthyridine-3-carboxamide]: the half-maximal effective concentration (EC50) at TFEB was under 100 nM. Moreover, the CLint scaled at 1 μM in series [1] is 3 mL/min/kg; in series [2], 70 mL/min/kg; in series [3], 124 mL/min/kg.

The values above are taken from patent US20250281483A1, “TRANSCRIPTION FACTOR EB ACTIVATORS AND USES THEREOF” (Astellas Engineered Small Molecules US, Incorporated, priority 2022, published 2025).
